{"source": "patent US20160212997A1", "about": "“AGRICULTURAL CHEMICALS” (REDAG CROP PROTECTION LTD, priority 2013, published 2016)", "type_in_all_cases": "in vivo", "key": {"[1]": {"test_system": "red spider mites, Tetranychus urticae", "assay": "Potter tower spray on red spider mites, knockdown and mortality", "settings": "Spider mites"}, "[2]": {"test_system": "Tomato moths", "assay": "Potter tower spray on tomato moths, knockdown and mortality", "text": "(§1) The compounds were screened at a range of five concentrations, diluted in DMSO. Some of the compounds were screened against aphids, whitefly and red spider mites and other compounds were screened against cabbage moth, and diamond black moths. A carrier only and an untreated control will also be conducted. Treatments were applied directly onto the insects within Petri dishes, using a potter tower.\n(§2) Twenty mites and ten aphids, scales and moth larvae were placed within a Petri dish, lined with a suitable leaf disc on a damp cotton wool pad. Scales were already on leaves. The Petri dishes were then sprayed using a potter tower. The number of knocked down and anthropods were assessed at 24 and 48 hours post treatment. Five replicates were be performed for each treatment, for each species."}, "[3]": {"test_system": "Cabbage moth, Mamestra brassicae", "assay": "Potter tower spray on cabbage moth larvae, knockdown and mortality", "settings": "Cabbage moths", "text": "The compounds were screened for insecticidal efficacy against aphids, Myzus persicae, Cabbage moth, Mamestra brassicae, diamond black moths, Plutella xylostella, red spider mites, Tetranychus urticae, whitefly, Trialeurodes vaporariorum, in terms of knockdown and mortality.\nMyzus persicae, Cabbage moth, Mamestra brassicae, diamond back moths, Plutella xylostella, red spider mites, Tetranychus urticae, whitefly, Trialeurodes vaporariorum, were obtained from specified laboratory cultures. Mixed sex and age aphids and mites, moth larvae and whitefly scale infested leaves were used in the experiments. Environmental conditions were closely monitored and recorded and were within the optimal range of the target species.\nas §1, §2"}, "[4]": {"test_system": "Tomato moths", "assay": "Potter tower spray on tomato moths, knockdown and mortality", "remark": "listed apart in the source"}, "[5]": {"test_system": "aphids, Myzus persicae", "assay": "Potter tower spray on aphids, knockdown and mortality", "settings": "Aphids", "in_short": "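Ten aphids (mixed sex and age) per Petri dish on a leaf disc were sprayed by Potter tower with compounds at five concentrations in DMSO. Knockdown and mortality were scored at 24 and 48 hours, five replicates per treatment, alongside carrier-only and untreated controls.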"}}, "data": [{"smiles": "CC(c1ccc(C(F)(F)F)nc1)S(C)(=O)=NC#N", "note": "(stereo not shown) [Compound 11, N-[Methyl-oxo-[1-[6-(trifluoromethyl)-3-pyridyl]ethyl]-λ^6-sulfanylidene]cyanamide, reference compound]", "values": [{"measurement": "percentage control", "setting": "[1]; 12.5 g/ha, 24 h", "result": "E (A percentage control of from 1 to 19 is indicated by the letter E)"}, {"measurement": "percentage control", "setting": "[1]; 12.5 g/ha, 48 h", "result": "D (A percentage control of from 20 to 39 is indicated by the letter D)"}, {"measurement": "percentage control", "setting": "[1]; 25 g/ha, 24 h", "result": "E (A percentage control of from 1 to 19 is indicated by the letter E)"}, {"measurement": "percentage control", "setting": "[1]; 25 g/ha, 48 h", "result": "E (A percentage control of from 1 to 19 is indicated by the letter E)"}, {"measurement": "percentage control", "setting": "[1]; 50 g/ha, 24 h", "result": "D (A percentage control of from 20 to 39 is indicated by the letter D)"}, {"measurement": "percentage control", "setting": "[1]; 50 g/ha, 48 h", "result": "D (A percentage control of from 20 to 39 is indicated by the letter D)"}, {"measurement": "percentage control", "setting": "[1]; 100 g/ha, 24 h", "result": "D (A percentage control of from 20 to 39 is indicated by the letter D)"}, {"measurement": "percentage control", "setting": "[1]; 100 g/ha, 48 h", "result": "D (A percentage control of from 20 to 39 is indicated by the letter D)"}, {"measurement": "percentage control", "setting": "[1]; 200 g/ha, 24 h", "result": "C (A percentage control of from 40 to 59 is indicated by the letter C)"}, {"measurement": "percentage control", "setting": "[1]; 200 g/ha, 48 h", "result": "C (A percentage control of from 40 to 59 is indicated by the letter C)"}, {"measurement": "percentage control", "setting": "[2]; 12.5 g/ha, 24 h", "result": 0, "unit": "%"}, {"measurement": "percentage control", "setting": "[2]; 25 g/ha, 24 h", "result": "E (A percentage control of from 1 to 19 is indicated by the letter E)"}, {"measurement": "percentage control", "setting": "[2]; 25 g/ha, 48 h", "result": "E (A percentage control of from 1 to 19 is indicated by the letter E)"}, {"measurement": "percentage control", "setting": "[2]; 50 g/ha, 24 h", "result": 0, "unit": "%"}, {"measurement": "percentage control", "setting": "[2]; 50 g/ha, 48 h", "result": "E (A percentage control of from 1 to 19 is indicated by the letter E)"}, {"measurement": "percentage control", "setting": "[2]; 100 g/ha, 48 h", "result": "E (A percentage control of from 1 to 19 is indicated by the letter E)"}, {"measurement": "percentage control", "setting": "[2]; 200 g/ha, 24 h", "result": "E (A percentage control of from 1 to 19 is indicated by the letter E)"}, {"measurement": "percentage control", "setting": "[2]; 200 g/ha, 48 h", "result": "E (A percentage control of from 1 to 19 is indicated by the letter E)"}, {"measurement": "percentage control", "setting": "[3]; 12.5 g/ha, 24 h", "result": "E (A percentage control of from 1 to 19 is indicated by the letter E)"}, {"measurement": "percentage control", "setting": "[3]; 12.5 g/ha, 48 h", "result": "E (A percentage control of from 1 to 19 is indicated by the letter E)"}, {"measurement": "percentage control", "setting": "[3]; 25 g/ha, 24 h", "result": "E (A percentage control of from 1 to 19 is indicated by the letter E)"}, {"measurement": "percentage control", "setting": "[3]; 25 g/ha, 48 h", "result": "E (A percentage control of from 1 to 19 is indicated by the letter E)"}, {"measurement": "percentage control", "setting": "[3]; 50 g/ha, 24 h", "result": "E (A percentage control of from 1 to 19 is indicated by the letter E)"}, {"measurement": "percentage control", "setting": "[3]; 50 g/ha, 48 h", "result": "E (A percentage control of from 1 to 19 is indicated by the letter E)"}, {"measurement": "percentage control", "setting": "[3]; 100 g/ha, 24 h", "result": "E (A percentage control of from 1 to 19 is indicated by the letter E)"}, {"measurement": "percentage control", "setting": "[3]; 100 g/ha, 48 h", "result": "E (A percentage control of from 1 to 19 is indicated by the letter E)"}, {"measurement": "percentage control", "setting": "[3]; 200 g/ha, 24 h", "result": "E (A percentage control of from 1 to 19 is indicated by the letter E)"}, {"measurement": "percentage control", "setting": "[3]; 200 g/ha, 48 h", "result": "E (A percentage control of from 1 to 19 is indicated by the letter E)"}, {"measurement": "percentage control", "setting": "[4]; 12.5 g/ha, 48 h", "result": "E (A percentage control of from 1 to 19 is indicated by the letter E)"}, {"measurement": "percentage control", "setting": "[4]; 100 g/ha, 24 h", "result": "E (A percentage control of from 1 to 19 is indicated by the letter E)"}, {"measurement": "percentage control", "setting": "[5]; 12.5 g/ha, 24 h", "result": "C (A percentage control of from 40 to 59 is indicated by the letter C)"}, {"measurement": "percentage control", "setting": "[5]; 12.5 g/ha, 48 h", "result": "B (A percentage control of from 60 to 79 is indicated by the letter B)"}, {"measurement": "percentage control", "setting": "[5]; 25 g/ha, 24 h", "result": "E (A percentage control of from 1 to 19 is indicated by the letter E)"}, {"measurement": "percentage control", "setting": "[5]; 25 g/ha, 48 h", "result": "B (A percentage control of from 60 to 79 is indicated by the letter B)"}, {"measurement": "percentage control", "setting": "[5]; 50 g/ha, 24 h", "result": "D (A percentage control of from 20 to 39 is indicated by the letter D)"}, {"measurement": "percentage control", "setting": "[5]; 50 g/ha, 48 h", "result": "B (A percentage control of from 60 to 79 is indicated by the letter B)"}, {"measurement": "percentage control", "setting": "[5]; 100 g/ha, 24 h", "result": "A (A percentage control of from 80 to 100 is indicated by the letter A)"}, {"measurement": "percentage control", "setting": "[5]; 100 g/ha, 48 h", "result": "A (A percentage control of from 80 to 100 is indicated by the letter A)"}, {"measurement": "percentage control", "setting": "[5]; 200 g/ha, 24 h", "result": "B (A percentage control of from 60 to 79 is indicated by the letter B)"}, {"measurement": "percentage control", "setting": "[5]; 200 g/ha, 48 h", "result": "A (A percentage control of from 80 to 100 is indicated by the letter A)"}]}]}
